Data taken from patent publication US6187802A, “Substituted 4-arylmethylene-2-imino-2,3-dihydrothiazoles and derivatives and their pharmaceutical use” (Knoll Aktiengesellschaft, priority 1997, dated 2001).
Counter-ions that a name gives are not always drawn.

Columns and labels:
[1] = molecular target: T1, dopamine (DA) reuptake sites (Rattus norvegicus, UniProt P23977); test: displacement of [3H]GBR 12935 from dopamine reuptake sites, striatal membranes; format: binding; details: 10^-6 M test compound, [3H]GBR 12935 1 nM, one test only; for inhibition at 1 µM: read-out: DA uptake (% displacement of specific binding of tritiated ligand)
T1 construct: Striatal tissue from the brains of male Charles River rats weighing 150-250 g; from tissue; host or cells: rat brain striatum (crude synaptosomes in A1, washed membranes in A4)
Description: Striatal tissue from the brains of male Charles River rats weighing 150-250 g was homogenised in ice-cold 0.32M sucrose (1:80 w/v) using a motor driven teflon pestle (12 strokes, 800 rpm) and centrifuged at 1000 g for 12 minutes. The supernatant was stored on ice and the pellet was resuspended in 0.32M sucrose (1:80 w/v) and centrifuged at 850 g for 10 minutes. Combined supernatants were diluted to 1:320 w/v with ice-cold 50 mM Tris-HCl, pH 7.4 (at 25° C.) containing 200 mM sodium chloride and 5 mM potassium chloride (Tris buffer) and centrifuged at 40,000 g for 10 minutes. The resulting pellet was resuspended in 10 ml of 50 mM Tris buffer, incubated at 37° C. for 10 min, diluted in 50 mM Tris buffer (1:320 w/v) and recentrifuged at 40,000 g for 10 minutes. The final pellet was resuspended in 50 mM Tris buffer (equivalent to 1.25 mg wet weight of tissue/ml) and used immediately in the binding assay. All centrifugations were carried out at 4° C.
Membranes (800 μl; equivalent to 1 mg wet weight of tissue/tube) were incubated with 100 μl [^3 H]GBR 12935 at a single concentration of 1 nM and 100 μl of distilled water (total binding) or 100 μl of test compound (10^-6 M) or 100 μl of mazindol (1 μM; non-specific binding) for 90 min at 4° C.
Membrane bound radioactivity was recovered by filtration under vacuum through Whatman GF/C filters, pre-soaked for 1 h in 0.5% polyethylenimine,using a Brandel cell harvester. Filters were rapidly washed with 16 ml of ice-cold 50 mM Tris-HCl, pH 7.4 and radioactivity determined by liquid scintillation counting (2 ml Packard MV Gold scintillator).
(§1) For each of these tests measuring the ability of compounds of Formula I to displace standard ligands from dopamine (DA), 5-hydroxytryptamine (5-HT) and noradrenaline (NA) reuptake sites in vitro, the percentage displacement of specific binding of tritiated ligand by 10^-6 M test compound was calculated in the following way:
(§2) Firstly, specific binding of tritiated ligand in the absence (A) and presence (B) of test compound was determined:
(§3) In the absence of compound:
(§4) A (dpm)=Total binding (dpm)-Non-specific binding (dpm)
(§5) In the presence of compound (10^-6 M):
(§6) B (dpm)=Binding at 10^-6 M (dpm)-Non-specific binding (dpm)
(§7) The specific binding of tritiated ligand in the presence (B) of compound was then converted to a percentage of specific binding of tritiated ligand in the absence (A) of compound:
(§8) % Specific binding at 10^-6 M=B (dpm)/A(dpm)×100
(§9) The percentage displacement of specific binding of trtiated ligand by the test compound (10^-6 M) was then obtained by subtraction of the percentage specific binding in the presence of compound from the percentage specific binding in the absence of compound, which is taken as the maximum binding and so equals 100%:
(§10) % Displacement at 10^-6 M=100-% Specific binding at 10^-6 M.
(§11) The values given below in Table 2 for examples 6 to 76 are % displacement of specific binding of tritiated ligand by 10^-6 M test compound and represent results from one test only. IA refers to <50% displacement.

[2] = molecular target: T2, noradrenaline (NA) reuptake sites (Rattus norvegicus, UniProt Q63380); test: displacement of [3H]nisoxetine from noradrenaline reuptake sites, frontal cortical membranes; details: 10^-6 M test compound, [3H]nisoxetine 0.6 nM, one test only, read-out: NA uptake (% displacement of specific binding of tritiated ligand)
T2 construct: Frontal cortical tissue from the brains of male Sprague-Dawley rats; from tissue; host or cells: rat brain frontal cortex (crude synaptosomes in A3, washed membranes in A6)
Description: Frontal cortical tissue from the brains of male Charles River rats weighing 150-250 g was homogenised in ice-cold 50 mM Tris-HCl, pH 7.4 (at 25° C.) containing 120 mM sodium chloride and 5 mM potassium chloride (Tris buffer; 1:60 w/v) using a Kinematic polytron (speed setting 6 for 30 seconds) and centrifuged at 40,000 g for 10 minutes. The supernatant was discarded and the pellet rehomogenised in Tris buffer, 1:60 w/v, and centrifuged at 40,000 g for 10 minutes. This step was repeated twice more so that, in total, the brain tissue was homogenised and centrifuged four times. The final pellet was resuspended in 50 mM Tris-HCl, pH 7.4 containing 300 mM sodium chloride and 5 mM potassium chloride (equivalent to 25 mg wet weight of tissue/ml) and used immediately in the binding assay. All centrifugations were performed at 4° C.
Membranes (400 μl; equivalent to 10 mg wet weight of tissue/tube) were incubated with 50 μl [^3 H]nisoxetine at a single concentration of 0.6 nM and 50 μl of distilled water (total binding) or 50 μl of test compound (10^-6 M) or 50 μl of mazindol (1 μM; non-specific binding) for 4 h at 4° C.
Membrane bound radioactivity was recovered by filtration under vacuum through Skatron 11734 filters using a Skatron cell harvester. Filters were rapidly washed with ice-cold 50 mM Tris-HCl, pH 7.4 containing 120 mM sodium chloride and 5 mM potassium chloride (wash setting 9,9,0) and radioactivity determined by liquid scintillation counting (1 ml Packard MV Gold scintillator).
as §1, §2, §3, §4, §5, §6, §7, §8, §9, §10, §11

[3] = molecular target: T3, 5-hydroxytryptamine (5-HT) reuptake sites (Rattus norvegicus, UniProt P31652); test: displacement of [3H]paroxetine from 5-HT reuptake sites, frontal cortical membranes; format: binding; details: 10^-6 M test compound, [3H]paroxetine 30 pM, one test only; for inhibition at 1 µM: read-out: 5-HT uptake (% displacement of specific binding of tritiated ligand)
T3 construct: Frontal cortical tissue from the brains of male Sprague-Dawley rats; from tissue; host or cells: rat brain frontal cortex (crude synaptosomes in A2, washed membranes in A5)
Description: Frontal cortical tissue from the brains of male Charles River rats weighing 150-250 g was homogenised in ice-cold 0.25M sucrose (1:30 w/v) using a Kinematic polytron (speed setting 6 for 30 seconds) and centrifuged at 1000 g for 12 minutes. The supernatant was stored on ice and the pellet was resuspended in 0.25M sucrose (1:20 w/v) and centrifuged at 850 g for 10 minutes. Combined supernatants were diluted to 1:100 w/v with ice-cold 50 mM Tris-HCl, pH 7.5 (at 25° C.) containing 120 mM sodium chloride and 5 mM potassium chloride (Tris buffer) and centrifuged at 40,000 g for 10 minutes. The resulting pellet was resuspended in 50 mM Tris buffer (1:100 w/v) and recentrifuged at 40,000 g for 10 minutes. The final pellet was resuspended in 50 mM Tris buffer (equivalent to 2 mg wet weight of tissue/ml) and used immediately in the binding assay. All centrifugations were carried out at 4° C.
Membranes (1000 μl; equivalent to 2 mg wet weight of tissue/tube) were incubated with 200 μl [^3 H]paroxetine at a single concentration of 30 pM and 200 μl of distilled water (total binding) or 200 μl of test compound (10^-6 M) or 200 μl of citalopram (1 μM; non-specific binding) for 2 h at 22° C.
Membrane bound radioactivity was recovered by filtration under vacuum through Whatman GFIC filters using a Brandel cell harvester. Filters were rapidly washed with 16 ml ice-cold 50 mM Tris buffer and radioactivity determined by liquid scintillation counting (2 ml Packard MV Gold scintillator).
as §1, §2, §3, §4, §5, §6, §7, §8, §9, §10, §11

T3 sequence (P31652 whole entry): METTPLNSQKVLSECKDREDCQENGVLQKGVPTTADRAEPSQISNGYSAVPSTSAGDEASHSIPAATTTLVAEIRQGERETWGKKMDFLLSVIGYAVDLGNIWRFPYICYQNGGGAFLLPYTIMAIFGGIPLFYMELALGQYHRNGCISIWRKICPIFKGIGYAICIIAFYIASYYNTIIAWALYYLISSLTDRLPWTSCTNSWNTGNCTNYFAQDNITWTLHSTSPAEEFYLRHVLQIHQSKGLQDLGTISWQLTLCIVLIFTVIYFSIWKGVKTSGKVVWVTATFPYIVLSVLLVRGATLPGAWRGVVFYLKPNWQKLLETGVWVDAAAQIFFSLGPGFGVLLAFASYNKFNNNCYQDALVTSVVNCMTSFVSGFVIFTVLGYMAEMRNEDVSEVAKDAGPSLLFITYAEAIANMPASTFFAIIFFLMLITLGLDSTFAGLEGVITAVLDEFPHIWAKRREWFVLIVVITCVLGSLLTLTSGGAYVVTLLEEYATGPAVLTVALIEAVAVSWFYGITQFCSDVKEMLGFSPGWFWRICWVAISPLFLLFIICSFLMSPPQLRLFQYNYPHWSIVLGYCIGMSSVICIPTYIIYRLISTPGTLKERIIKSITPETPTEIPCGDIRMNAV
T1 sequence (P23977 whole entry): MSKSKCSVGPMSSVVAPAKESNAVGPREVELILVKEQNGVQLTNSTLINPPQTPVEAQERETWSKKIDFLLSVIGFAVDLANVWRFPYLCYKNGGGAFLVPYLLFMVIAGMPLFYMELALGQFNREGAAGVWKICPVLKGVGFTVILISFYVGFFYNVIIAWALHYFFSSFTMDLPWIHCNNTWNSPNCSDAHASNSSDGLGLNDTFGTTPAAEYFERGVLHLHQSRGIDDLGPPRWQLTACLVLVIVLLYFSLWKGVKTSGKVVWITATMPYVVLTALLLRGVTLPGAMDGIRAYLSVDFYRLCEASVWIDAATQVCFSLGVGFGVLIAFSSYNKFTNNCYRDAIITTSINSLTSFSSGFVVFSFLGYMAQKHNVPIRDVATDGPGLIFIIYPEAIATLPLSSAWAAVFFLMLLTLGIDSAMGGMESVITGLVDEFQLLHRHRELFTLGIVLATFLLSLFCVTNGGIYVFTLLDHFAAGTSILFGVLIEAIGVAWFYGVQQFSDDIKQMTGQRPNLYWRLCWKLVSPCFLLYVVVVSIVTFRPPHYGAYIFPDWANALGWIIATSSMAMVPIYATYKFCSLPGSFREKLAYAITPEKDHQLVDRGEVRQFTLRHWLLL
T2 sequence (Q63380 1-617): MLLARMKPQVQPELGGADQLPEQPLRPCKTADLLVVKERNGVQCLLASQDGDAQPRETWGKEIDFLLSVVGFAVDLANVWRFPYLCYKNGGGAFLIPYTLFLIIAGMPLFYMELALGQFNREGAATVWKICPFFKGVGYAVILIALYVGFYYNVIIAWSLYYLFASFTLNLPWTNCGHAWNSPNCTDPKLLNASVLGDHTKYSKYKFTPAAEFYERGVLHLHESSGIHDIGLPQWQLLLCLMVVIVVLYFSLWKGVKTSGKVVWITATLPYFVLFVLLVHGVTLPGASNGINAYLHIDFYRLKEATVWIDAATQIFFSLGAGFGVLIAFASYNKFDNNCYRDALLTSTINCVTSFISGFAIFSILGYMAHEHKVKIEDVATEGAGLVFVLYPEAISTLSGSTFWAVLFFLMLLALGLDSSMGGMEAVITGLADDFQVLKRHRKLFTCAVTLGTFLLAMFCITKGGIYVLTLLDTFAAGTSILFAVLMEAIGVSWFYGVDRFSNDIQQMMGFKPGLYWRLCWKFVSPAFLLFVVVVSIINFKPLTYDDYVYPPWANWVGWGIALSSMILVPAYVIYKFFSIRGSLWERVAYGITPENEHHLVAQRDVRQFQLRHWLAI

Row | Structure (SMILES) | inhibition at 1 µM [1] | inhibition at 1 µM [2] | inhibition at 1 µM [3] | DA uptake (% displacement of specific binding of tritiated ligand) ([1]; hydrobromide, 1 µM) | 5-HT uptake (% displacement of specific binding of tritiated ligand) ([3]; 1 µM, hydrobromide)
1 | Cc1ccccc1N=c1scc(C2(c3ccc(Cl)c(Cl)c3)CCC2)n1-c1ccccc1C [Example 29, 4-[1-(3,4-Dichlorophenyl)cyclobutyl]-3-(o-tolyl)-2-(o-tolylimino)-2,3-dihydrothiazole hydrobromide] | 74% | < 50% | < 50% | – | –
2 | Clc1ccc(C2(c3csc(=NCC4CC4)n3CC3CC3)CCC2)cc1Cl [Example 21, 4-[1-(3,4-Dichlorophenyl)cyclobutyl]-3-cyclopropylmethyl-2-cyclopropylmethylimino-2,3-dihydrothiazole hydrobromide] | 108% | 50% | 103% | – | –
3 | Fc1ccc(CN=c2scc(C3(c4ccc(Cl)c(Cl)c4)CCC3)n2Cc2ccc(F)cc2)cc1 [Example 23, 4-[1-(3,4-Dichlorophenyl)cyclobutyl]-3-(4-fluorobenzyl)-2-(4-fluorobenzylimino)-2,3-dihydrothiazole hydrobromide] | 83% | < 50% | < 50% | – | –
4 | c1ccc(N=c2scc(C3(c4ccc5ccccc5c4)CCC3)n2-c2ccccc2)cc1 [Example 49, 4-[1-(2-Naphthyl)cyclobutyl]-3-phenyl-2-phenylimino-2,3-dihydrothiazole hydrobromide] | 69% | < 50% | 56% | – | –
5 | CCCCN=c1scc(C2(c3ccc(Br)cc3)CCC2)n1CCCC [Example 57, 4-[1-(4-Bromophenyl)cyclobutyl]-3-butyl-2-butylimino-2,3-dihydrothiazole hydrobromide] | 94% | < 50% | < 50% | – | –
6 | Brc1ccc(C2(C3=CSC4=NCCN34)CCC2)cc1 [Example 70, 3-[1-(4-Bromophenyl)cyclobutyl]-5,6-dihydroimidazo[2,1-b]thiazole hydrobromide] | 80% | 52% | < 50% | – | –
7 | Clc1ccc(C2(c3csc(=NCCc4ccccc4)n3CCc3ccccc3)CCC2)cc1Cl [Example 24, 4-[1-(3,4-Dichlorophenyl)cyclobutyl]-3-phenethyl-2-phenethylimino-2,3-dihydrothiazole hydrobromide] | 90% | < 50% | < 50% | – | –
8 | CCCCN=c1scc(C2(c3ccc(Cl)cc3)CCCC2)n1CCCC [Example 60, 3-Butyl-2-butylimino-4-[1-(4-chlorophenyl)cyclopentyl]-2,3-dihydrothiazole hydrobromide] | 106% | < 50% | < 50% | – | –
9 | CCCN=c1scc(C2(c3ccc4ccccc4c3)CCC2)n1CCC [Example 38, 4-[-(2-Naphthyl)cyclobutyl]-3-propyl-2-propylimino-2,3-dihydrothiazole hydrobromide] | 111% | 95% | 102% | – | –
10 | CCCCN=c1scc(C2(c3ccc4ccccc4c3)CCC2)n1CCCC [Example 40, 3-Butyl-2-butylimino-4-[1-(2-naphthyl)cyclobutyl]-2,3-dihydrothiazole hydrobromide] | 113% | < 50% | 97% | – | –
11 | CCN=c1scc(C2(c3ccc4ccccc4c3)CCC2)n1CC [Example 37, 3-Ethyl-2-ethylimino-4-[1-(2-naphthyl)cyclobutyl]-2,3-dihydrothiazole hydrobromide] | 110% | 102% | 101% | – | –
12 | CCOc1ccc(N=c2scc(C3(c4ccc(Cl)c(Cl)c4)CCC3)n2-c2ccc(OCC)cc2)cc1 [Example 32, 4-[1-(3,4-Dichlorophenyl)cyclobutyl]-3-(4-ethoxyphenyl)-2-(4-ethoxyphenylimino)-2,3-dihydrothiazole hydrobromide] | 69% | < 50% | < 50% | – | –
13 | C1=C(C2(c3ccccc3)CCCCC2)N2CCN=C2S1 [Example 72, 3-(1-Phenylcyclohexyl)-5,6-dihydroimidazo[2,1-b]thiazole hydrobromide] | 70% | < 50% | < 50% | – | –
14 | COc1ccc(CCN=c2scc(C3(c4ccc5ccccc5c4)CCC3)n2CCc2ccc(OC)c(OC)c2)cc1OC [Example 55, 3-(3,4-Dimethoxyphenethyl)-2-(3,4-dimethoxyphenethylimino)-4-[1-(2-naphthyl)cyclobutyl]-2,3-dihydrothiazole hydrobromide] | 91% | < 50% | < 50% | – | –
15 | CC(C)(C1=CSC2=NCCN12)c1ccc(Cl)c(Cl)c1 [Example 11, 3-[1-(3,4-dichlorophenyl)-1-methylethyl]-5,6-dihydroimidazo[2,1-b]-thiazole hydrobromide] | 102% | < 50% | 57% | – | –
16 | Br.CC(C)(C1=CSC2=NCCN12)c1ccc(Cl)c(Cl)c1 [Example 74, 3-[1-(3,4-Dichlorophenyl)-1-methylethyl]-5,6-dihydroimidazo[2,1-b]thiazole hydrobromide] | – | – | – | 97% | 52%
